Measurements taken from patent US20080255236A1, “Methods and Composition Comprising 2-[(3-Chlorophenyl)Amino] Phenylacetic Acid for Alzheimer's Disease” (Glycadia, Inc., priority 2007, published 2008).
Read-outs that look alike come from different tables or passages of the source. One block for each compound: values may come before it.

Assays:
[1] = cited from earlier work
[2] = Bioavailability of 23CPPA in male rats (oral vs intravenous); assay type: in vivo; conditions: rat, single dose oral 30 mg/kg vs intravenous 3.0 mg/kg, plasma LC-MS-MS
Experimental: Male rats were given a single dose of 23CPPA by the oral route (30 mg/kg) or by the intravenous route (3.0 mg/kg). Timed samples of blood were collected before and after dosing, and plasma concentrations of the compound were determined with LC-MS-MS analysis.

[3] = system: Mammalian cell cultures expressing human Amyloid Protein Precursor (APP); experiment: Production of Aβ40 and Aβ42 peptides in culture supernatants, enzyme-linked immunoassay; assay type: cell-based; conditions: sodium salt at 10, 50 and 100 micromolar, vs DMSO control
Experimental: FIG. 1 is a chart diagram representing an exemplary embodiment of 23CPPA lowering production of amyloidogenic Aβ42 peptide. Mammalian cell cultures expressing human Amyloid Protein Precursor (APP) were treated with the sodium salt of 23CPPA at concentrations of 10, 50 and 100 micromolar. The culture supernatants were analyzed by enzyme-linked immunoassay for the Aβ40 and Aβ42 peptides. Results were compared to control values obtained from cells treated with DMSO. […] Mammalian cell cultures expressing human Amyloid Protein Precursor (APP) were treated with the sodium salt of 23CPPA at concentrations of 10, 50 and 100 micromolar. The culture supernatants were analyzed by enzyme-linked immunoassay for the Aβ40 and Aβ42 peptides. Results were compared to control values obtained from cells treated with DMSO.

diabetic rodents = conditions: chronic administration, cited from earlier work
human hepatocytes = experiment: Metabolic conversion after incubation with human hepatocytes (mass spectrometry); assay type: in vitro ADME
Experimental: After incubation of 23CPPA with human hepatocytes, samples were analyzed using mass spectrometry to establish metabolic conversion of the compound.

[4] = Plasma levels of 23CPPA following oral administration in rats; assay type: in vivo, rat; conditions: for AUC(0-t) / half-life: plasma, rat; for AUC(0-t) / Cmax / half-life: po; for AUC(0-t): read-out: AUC0-24; for Cmax: read-out: maximal concentration (Cmax)
Experimental: Concentrations of compound in rat plasma were measured at timed intervals after administration by gavage of 25 and 75 mg per kilogram of body weight of the sodium salt of 23CPPA. […] Plasma concentrations of the compound readily declined after reaching maximal concentration and the elimination half-life (T^1/2) was about 2 hours. The extent of systemic exposure of animals to 23CPPA, characterized by the area under the curve from 0 to 24 hours after administration (AUC0-24), increased with increasing dosage, was approximately dose proportional, and encompassed levels representing therapeutic ranges.

[5] = Plasma levels of 23CPPA after oral administration to humans; assay type: in vivo, human; conditions: for AUC(0-t): read-out: AUC0-24
Experimental: Plasma concentrations were measured at timed intervals after oral administration of a single dose of 50 to 1000 mg of the sodium salt of 23CPPA. […] The extent of systemic exposure of subjects to 23CPPA, characterized by the area under the curve from 0 to 24 hours after administration (AUC0-24), increased with increasing dosage from 50 to 1000 mg and was approximately dose proportional. The human pharmacokinetic findings closely resemble those in rats according to the human equivalent dose as shown in Example 2.

COX1 = COX1 (Homo sapiens, UniProt P23219); conditions: background statement, no test described; cited from earlier work
COX2 = molecular target: T1, COX2 (Homo sapiens, UniProt P35354); conditions: background statement, no test described; cited from earlier work
T1 sequence (P35354 18-604): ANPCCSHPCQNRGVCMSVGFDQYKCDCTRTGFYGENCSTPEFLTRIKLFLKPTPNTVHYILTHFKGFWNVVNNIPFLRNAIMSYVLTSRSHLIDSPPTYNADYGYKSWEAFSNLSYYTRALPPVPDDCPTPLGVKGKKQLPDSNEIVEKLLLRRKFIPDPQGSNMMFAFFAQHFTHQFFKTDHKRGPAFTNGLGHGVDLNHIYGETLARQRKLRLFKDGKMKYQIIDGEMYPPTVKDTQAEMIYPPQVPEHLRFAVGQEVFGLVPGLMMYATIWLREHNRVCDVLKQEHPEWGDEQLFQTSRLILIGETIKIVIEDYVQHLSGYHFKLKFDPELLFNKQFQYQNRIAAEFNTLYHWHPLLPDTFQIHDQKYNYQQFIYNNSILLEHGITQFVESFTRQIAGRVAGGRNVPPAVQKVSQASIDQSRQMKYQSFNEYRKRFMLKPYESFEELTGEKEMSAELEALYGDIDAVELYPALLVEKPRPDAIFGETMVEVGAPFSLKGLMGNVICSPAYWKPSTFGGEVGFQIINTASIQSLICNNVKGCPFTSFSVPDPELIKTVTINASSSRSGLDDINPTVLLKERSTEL

[6] = Brain and plasma levels of 23CPPA following oral administration in rats (HPLC/MS/MS); assay type: in vivo; conditions: rat; for concentration at 1 h: 1 hour after dose; for concentration at 4 h: 4 hours after dose; for concentration at 6 h: 6 hours after dose
Experimental: Rat hemi brains were obtained 1, 4 and 6 hours after administration by gavage of the sodium salt of 23CPPA at doses of 15 and 60 mg/kg and were mixed with two equivalents of water and homogenized. The resulting homogenate was extracted into acetonitrile containing internal standard and concentrations of the compound were analyzed by high pressure liquid chromatography/two stage mass spectrometry (HPLC/MS/MS). Plasma samples also were collected from the same rats at these time points for measurement of plasma concentrations of the compound.

[7] = blood, gavage 15 mg/kg sodium salt, read-out: Blood concentration
[8] = blood, gavage 60 mg/kg sodium salt, read-out: Blood concentration
[9] = brain, gavage 15 mg/kg sodium salt, read-out: Brain concentration
[10] = brain, gavage 60 mg/kg sodium salt, read-out: Brain concentration

Chain of COX1 (P23219 24-599): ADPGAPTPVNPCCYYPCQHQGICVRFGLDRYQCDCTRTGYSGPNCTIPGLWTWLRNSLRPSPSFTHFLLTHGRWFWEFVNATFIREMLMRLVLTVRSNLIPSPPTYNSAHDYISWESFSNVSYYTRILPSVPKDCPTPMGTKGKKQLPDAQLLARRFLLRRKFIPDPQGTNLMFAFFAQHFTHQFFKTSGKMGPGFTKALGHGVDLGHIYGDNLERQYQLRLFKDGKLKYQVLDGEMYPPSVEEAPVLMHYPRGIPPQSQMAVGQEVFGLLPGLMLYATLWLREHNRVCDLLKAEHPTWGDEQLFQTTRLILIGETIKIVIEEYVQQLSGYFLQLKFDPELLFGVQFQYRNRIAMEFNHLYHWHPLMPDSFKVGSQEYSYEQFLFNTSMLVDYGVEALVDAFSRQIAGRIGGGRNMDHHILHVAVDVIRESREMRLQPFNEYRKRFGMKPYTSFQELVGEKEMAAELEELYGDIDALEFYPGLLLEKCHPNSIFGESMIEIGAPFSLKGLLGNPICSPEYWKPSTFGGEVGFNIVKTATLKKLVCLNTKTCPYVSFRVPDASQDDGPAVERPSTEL

Structure (SMILES): C[C@@H](C(=O)O)c1ccc(-c2ccccc2)c(F)c1 [R-flurbiprofen]
fraction converted in vivo to S-flurbiprofen [1]: 22-30%

bioavailability [2]: 85%
AUC(0-t) ([4]; gavage 25 mg/kg body wt. sodium salt): 26600 ng·h/mL
AUC(0-t) ([4]; gavage 75 mg/kg body wt. sodium salt): 94000 ng·h/mL
Cmax ([4]; rat plasma, gavage 25 mg/kg sodium salt): 9500 ng/mL
Cmax ([4]; rat plasma, gavage 75 mg/kg sodium salt): 25000 ng/mL
Time of maximal concentration (Tmax) ([4]; rat plasma, gavage 25 and 75 mg/kg sodium salt): within one hour
half-life ([4]; 25 mg/kg, gavage 25 mg/kg body wt. sodium salt, read-out: T1/2 (converted)): 2.45 h
half-life ([4]; 75 mg/kg, rat plasma, gavage 25 and 75 mg/kg sodium salt, read-out: elimination half-life (T1/2) (converted)): ~2 h
half-life ([4]; 75 mg/kg, gavage 75 mg/kg body wt. sodium salt, read-out: T1/2 (converted)): 1.95 h
Cmax ([5]; human plasma, single oral dose of 50 to 1000 mg sodium salt, read-out: maximal concentrations (Cmax)): 200 to 15600 ng/mL
Tmax ([5]; plasma, human, all dosage groups, single oral dose 50 to 1000 mg sodium salt, read-out: mean time of maximal concentration (Tmax)): 1.74 h
AUC(0-t) ([5]; plasma, human, single oral dose 50 mg (0.7 mg/kg body wt)): 4480 ng·h/mL
half-life ([5]; plasma, human, single oral dose 50 mg (0.7 mg/kg body wt), read-out: T1/2 (converted)): 1.55 h
AUC(0-t) ([5]; plasma, human, single oral dose 100 mg (1.3 mg/kg body wt)): 11000 ng·h/mL
half-life ([5]; plasma, human, single oral dose 100 mg (1.3 mg/kg body wt), read-out: T1/2 (converted)): 1.5 h
AUC(0-t) ([5]; plasma, human, single oral dose 250 mg (3.0 mg/kg body wt)): 27300 ng·h/mL
half-life ([5]; plasma, human, single oral dose 250 mg (3.0 mg/kg body wt), read-out: T1/2 (converted)): 1.35 h
AUC(0-t) ([5]; plasma, human, single oral dose 500 mg (6.0 mg/kg body wt)): 54000 ng·h/mL
half-life ([5]; plasma, human, single oral dose 500 mg (6.0 mg/kg body wt), read-out: T1/2 (converted)): 1.5 h
AUC(0-t) ([5]; plasma, human, single oral dose 750 mg (9.0 mg/kg body wt)): 66600 ng·h/mL
half-life ([5]; plasma, human, single oral dose 750 mg (9.0 mg/kg body wt), read-out: T1/2 (converted)): 2.33 h
AUC(0-t) ([5]; plasma, human, single oral dose 1000 mg (12.3 mg/kg body wt)): 100000 ng·h/mL
half-life ([5]; plasma, human, single oral dose 1000 mg (12.3 mg/kg body wt), read-out: T1/2 (converted)): 2.38 h
half-life ([5]; plasma, human, single oral dose 50 to 1000 mg sodium salt, read-out: mean elimination half-life (T1/2) (converted)): 1.77 h
concentration at 1 h [6, 7]: 27 µM
concentration at 4 h [6, 7]: 4 µM
concentration at 6 h [6, 7]: 3 µM
concentration at 1 h [6, 8]: 57 µM
concentration at 4 h [6, 8]: 28 µM
concentration at 6 h [6, 8]: 22 µM
concentration at 1 h [6, 9]: 76 µM
concentration at 4 h [6, 9]: 12.4 µM
concentration at 6 h [6, 9]: 11.9 µM
concentration at 1 h [6, 10]: 148 µM
concentration at 4 h [6, 10]: 61 µM
concentration at 6 h [6, 10]: 45 µM
Structure (SMILES): O=C(O)Cc1ccccc1Nc1cccc(Cl)c1 [23CPPA, 2-[(3-chlorophenyl)amino]phenylacetic acid]
amount of Aβ40 [3]: without proportionate change
amount of Aβ42 [3]: dose-dependent reduction
total Aβ values [3]: without proportionate change
concentration of glycated albumin (diabetic rodents; persistent hyperglycemia): lowers the concentration of glycated albumin
structural and functional abnormalities characteristic of diabetic kidney disease (diabetic rodents): ameliorates the structural and functional abnormalities
conversion products identified (human hepatocytes; incubation with human hepatocytes, mass spectrometry): hydroxylation and loss of water products and glucuronide conjugates
conversion to COX-inhibitory compound (human hepatocytes; structures of conversion products from human hepatocytes): none of which had structures compatible with COX-inhibitory activity
inhibition of cyclooxygenase enzyme COX1 (COX1): is not a pharmacologic inhibitor
inhibition of cyclooxygenase enzyme COX2 (COX2): is not a pharmacologic inhibitor
